Measured values taken from patent US20210361733A1, “Prevention and Treatment of SARS-CoV-2 Infection by Mentha piperita and Flos chrysanthemi Extracts alone, and their Combination” (priority 2021, published 2021).
“Also recorded” adds a separate entry of the source.

Experiments:
[1] = test system: SARS-CoV-2; details: prophylactic/therapeutic (full-time) setting, at 37° and 4° C., by CPE and RT-PCR; cited from earlier work
[2] = test system: Vero cell line; assay: Cytotoxicity of herbal extracts on Vero cell line, MTT assay; details: concentration not printed
[3] = test system: SARS-CoV-2; format: cell-based

Structure (SMILES)	antiviral activity [1]	cytotoxicity / percent inhibition (MTT assay) [2]	cytotoxicity / percent inhibition (MTT assay) ([2]; listed as Chloroquine)	viral load inhibition (increasing Cq value, decreasing percent viral copy number) ([3]; reference drugs: Chloroquine phosphate 9.69 μM/mL, Remdesivir 8.297 μM/mL)	inhibition of SARS-CoV-2 ([3]; viral full entry and post entry treatment points)
CCN(CCO)CCCC(C)Nc1ccnc2cc(Cl)ccc12 (stereo not drawn) [hydroxychloroquine]	significant antiviral activity				
CCC(CC)COC(=O)[C@H](C)N[P@](=O)(OC[C@H]1O[C@@](C#N)(c2ccc3c(N)ncnn23)[C@H](O)[C@@H]1O)Oc1ccccc1 [Remdesivir]		no inhibition; also recorded: non-toxic			
CCN(CC)CCCC(C)Nc1ccnc2cc(Cl)ccc12 (stereo not drawn) [Chloroquine phosphate]		non-toxic	no inhibition	viral load inhibition	inhibition of SARS-CoV-2
